We go through three molecules from ChEMBL document CHEMBL3132786, “Cytotoxic, immunomodulatory, antimycotic, and antiviral activities of semisynthetic 14-hydroxyabietane derivatives and triptoquinone C-4 epimers” (Medchemcomm, 2013).

The source made the active and inactive calls. No cut-off for these calls is given here.

In one data set the test system is Human alphaherpesvirus 1. The data set can be described thus: Antiviral activity against Herpes simplex virus type 1 infected in HeLa cells assessed as reduction in viral replication after 48 hrs. The class given is functional, organism-based.
Another data set concerns Aspergillus flavus. The data set can be described thus: Antifungal activity against Aspergillus flavus up to 100 ug/ml after 48 hrs by broth dilution method. It is filed as functional, organism-based.
Data set [1] is described as follows: Selectivity ratio of IC50 for african green monkey Vero cells to IC50 for human HeLa cells. The class given is ADME, cell-based. The conditions noted are these: Vero cells versus HeLa cells, read-out: Ratio IC50.
A further data set relates to Jurkat. The data set can be described thus: Cytotoxicity against human Jurkat cells after 48 hrs by MTT assay. The class given is functional, cell-based. Background: Formazan colour is commonly taken as a measure of viable cells.
Data set [2] is described as follows: Selectivity ratio of IC50 for african green monkey Vero cells to IC50 for human Jurkat cells. It is filed as ADME, cell-based. The conditions noted are these: Vero cells versus Jurkat cells, read-out: Ratio IC50.
In another data set the test system is HeLa. The data set can be described thus: Cytotoxicity against human HeLa cells after 48 hrs by MTT assay. It is filed as functional, cell-based.
The subject of a further data set is Aspergillus fumigatus. Kind of data set: Antifungal activity against Aspergillus fumigatus up to 100 ug/ml after 48 hrs by broth dilution method. It is filed as functional, organism-based.
The next data set relates to Aspergillus niger. The data set can be described thus: Antifungal activity against Aspergillus niger up to 100 ug/ml after 48 hrs by broth dilution method. The class given is functional, organism-based. (Broth dilution looks for growth in wells or tubes with falling amounts of substance.)
Another data set relates to Aspergillus terreus. Kind of data set: Antifungal activity against Aspergillus terreus up to 100 ug/ml after 48 hrs by broth dilution method. The class given is functional, organism-based.
For a further data set, the system named is Vero. Kind of data set: Cytotoxicity against african green monkey Vero cells after 48 hrs by MTT assay. It is filed as cell-based. The conditions noted are these: chlorocebus sabaeus.

Take `COC(=O)[C@]1(C)CCC[C@]2(C)C3=C(CC[C@@H]12)C(=O)C(C(C)C)=CC3=O`: the result in the data set on Human alphaherpesvirus 1, with Aspergillus flavus, in the data set on Aspergillus fumigatus, in the data set with Aspergillus niger and in the data set on Aspergillus terreus was inactive. The selectivity ratio worked out at 1.23 in data set [1] and 2.34 in data set [2]. For the same molecule, the inhibition result in the data set with Jurkat and in the data set with HeLa was “Dose-dependent effect” throughout. In addition, the “inhibition (INH)” value with Vero is listed as “Dose-dependent effect”.
Turning to `COC(=O)[C@]1(C)CCC[C@]2(C)c3ccc(C(C)C)c(O)c3CC[C@@H]12`, the result in the data set on Human alphaherpesvirus 1, in the data set with Aspergillus flavus, in the data set on Aspergillus fumigatus, in the data set with Aspergillus niger and with Aspergillus terreus was inactive. Also, the results for the selectivity ratio in data set [1] and in [2] were 1.9 and 2.59, respectively. Further, the inhibition entry in the data set on Jurkat and in the data set on HeLa was “Dose-dependent effect” in each case. The “inhibition (INH)” value in the data set with Vero was “Dose-dependent effect”.
As to `CC(C)c1ccc2c(c1O)CC[C@H]1[C@](C)(C(=O)O)CCC[C@]21C`, the outcome in the data set with Human alphaherpesvirus 1, with Aspergillus flavus, in the data set on Aspergillus fumigatus, in the data set on Aspergillus niger and in the data set on Aspergillus terreus was inactive. Also, the selectivity ratio in data set [1] was 0.77; in data set [2], 3.09. The inhibition entry in the data set with Jurkat and with HeLa was “Dose-dependent effect” each time. In addition, the “inhibition (INH)” value in the data set on Vero is “Dose-dependent effect”.
